Data: patent publication US20140093641A1, “LUBRICANT COMPOSITIONS CONTAINING FLUOROOXIRANES” (3MM INNOVATIVE PROPERTIES COMPANY, priority 2011, published 2014)

Legend:
rats = experiment: Short-term inhalation test (acute toxicity); type: in vivo; conditions: rats exposed for four hours at 50,000 ppm in air
[1] = Solubility testing of lubricants, additives and impurities in deposition solvents; type: physicochemical
Procedure: A disposable glass vial was placed on a four-place balance and the mass (MV) recorded. The balance with the glass vial was tared and deposition solvent was added (varying from 1 g to 5 g) and the mass (MS) was recorded. The balance with the deposition solvent in the glass vial was tared again. The lubricant was added in a dropwise fashion using a disposable plastic pipet and the mass (ML) recorded. The glass vial was then mixed by hand for 10 seconds to 30 seconds and the solution clarity was visually observed and recorded. If the solution was hazy, the lubricant was considered to have exceeded the solubility limit of the deposition solvent. If the solution was clear, additional drops of lubricant were added to the glass vial, the mass (ML) was recorded, the glass vial was shaken, and the solution clarity was observed. This process was continued until a hazy solution was observed or more than 10% w/w (weight of lubricant to combined weight of lubricant and deposition solvent) was reached. After a hazy solution or more than 10% w/w was reached, the glass vial with the solution was removed from the balance. The balance was tared and the final mass (MF) of the glass vial with deposition solvent and lubricant was measured and recorded. To account for the evaporative losses of the deposition solvent during the experiment, the mass of the vial and the mass of the lubricant added were subtracted from the total mass of the vial with the deposition solvent and lubricant to determine the final mass of deposition solvent (MS*) in the vial (i.e., MS*=MF−MV−ML). Solubility of the lubricant in deposition solvents was calculated as ML/(ML+MS*) and reported in % w/w (weight/weight).
If the endpoint was not clearly observed, the solubility experiment was repeated. Where a range is reported for solubility, the lower number is the highest soluble value and the higher number is the lowest insoluble value.

Row | Compound | acute toxicity, short-term inhalation (rats) | Solubility in C6 Oxirane [1] | Solubility in C9 Oxirane [1] | Solubility in NOVEC 7100 [1] | Solubility in PF-5060DL [1] | Solubility in VERTREL XF [1]
1 | FC(F)(F)C1(F)OC1(F)C(F)(C(F)(F)F)C(F)(F)F (stereo not drawn) [C6 Oxirane, 2,3-difluoro-2-(1,2,2,2-tetrafluoro-1-trifluoromethyl-ethyl)-3-trifluoromethyl-oxirane] | low acute toxicity | – | – | – | – | –
2 | CCCCCCCCOC(=O)c1ccccc1C(=O)OCCCCCCCC [DOP, Dioctylphthlate] | – | <0.9% | <1.1% | 5.1% | <0.005% | >30%
